Activity calls are given as the source filed them. The rule behind the calls is not given here.
What was measured:
Mus musculus [1] = test: Antifibrotic activity in CCl4-induced C57Bl6/J mouse liver fibrosis model assessed as reduction in iNOS level at 10 mg/kg administered via oral gavage for 4 weeks by immunostaining based method; type: functional, organism-based
[2] = target: T1, Nitric oxide synthase, inducible (Mus musculus) (UniProt P29477); test: Inhibition of iNOS in mouse RAW264.7 cells assessed as interferon gamma-induced NO production measured after 1 hr by fluorimetric assay; type: cell-based
T1 sequence (whole entry): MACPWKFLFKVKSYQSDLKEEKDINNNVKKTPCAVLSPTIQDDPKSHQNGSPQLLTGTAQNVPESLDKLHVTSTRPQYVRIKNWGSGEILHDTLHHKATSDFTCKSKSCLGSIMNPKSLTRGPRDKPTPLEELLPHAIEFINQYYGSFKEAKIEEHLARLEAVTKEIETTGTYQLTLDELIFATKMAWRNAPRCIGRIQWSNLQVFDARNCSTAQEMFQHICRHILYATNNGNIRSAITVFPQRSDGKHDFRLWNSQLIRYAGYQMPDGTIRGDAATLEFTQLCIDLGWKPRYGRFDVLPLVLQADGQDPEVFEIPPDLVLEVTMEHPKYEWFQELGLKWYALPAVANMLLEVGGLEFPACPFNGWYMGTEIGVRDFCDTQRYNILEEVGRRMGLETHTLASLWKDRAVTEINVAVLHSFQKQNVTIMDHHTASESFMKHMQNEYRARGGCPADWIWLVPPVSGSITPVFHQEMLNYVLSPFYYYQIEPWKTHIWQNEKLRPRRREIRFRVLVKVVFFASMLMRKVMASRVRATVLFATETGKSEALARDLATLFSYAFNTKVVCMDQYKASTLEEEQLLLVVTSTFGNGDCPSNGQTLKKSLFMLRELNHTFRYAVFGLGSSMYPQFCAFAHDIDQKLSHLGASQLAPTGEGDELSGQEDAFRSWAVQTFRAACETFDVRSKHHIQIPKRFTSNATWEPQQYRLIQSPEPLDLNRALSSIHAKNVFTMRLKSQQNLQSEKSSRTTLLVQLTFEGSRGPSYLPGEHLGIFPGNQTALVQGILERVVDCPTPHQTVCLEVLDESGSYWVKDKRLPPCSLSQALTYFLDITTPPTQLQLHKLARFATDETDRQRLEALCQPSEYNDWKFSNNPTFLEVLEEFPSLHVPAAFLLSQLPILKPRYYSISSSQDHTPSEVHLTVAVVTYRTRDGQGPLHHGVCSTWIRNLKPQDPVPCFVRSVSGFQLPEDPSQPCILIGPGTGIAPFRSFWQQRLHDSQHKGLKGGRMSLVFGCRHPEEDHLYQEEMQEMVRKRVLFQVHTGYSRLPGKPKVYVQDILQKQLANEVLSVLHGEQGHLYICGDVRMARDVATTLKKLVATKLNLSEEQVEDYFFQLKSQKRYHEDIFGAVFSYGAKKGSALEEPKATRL

[3] = target: T1, Nitric oxide synthase, inducible (Mus musculus); test: Inhibition of iNOS in mouse RAW264.7 cells assessed as LPS-induced NO production measured after 1 hr by fluorimetric assay; type: cell-based
Mus musculus [4] = test: Antifibrotic activity in CCl4-induced C57Bl6/J mouse liver fibrosis model assessed as reduction in liver fibrosis at 10 mg/kg administered via oral gavage for 4 weeks by picrosirius red staining based histological analysis; type: functional, organism-based
Mus musculus [5] = test: Antifibrotic activity in BDL-induced wild-type C57Bl6/J mouse liver damage model assessed as reduction in collagen deposition in liver at 30 mg/kg administered once daily via oral gavage by picrosirius staining based histological analysis; type: functional, organism-based
Mus musculus [6] = test: Antifibrotic activity in CCl4-induced C57Bl6/J mouse liver fibrosis model assessed as reduction in iNOS level at 3 mg/kg administered via oral gavage for 4 weeks by immunostaining based method; type: functional, organism-based
Mus musculus [7] = test: Antifibrotic activity in BDL-induced wild-type C57Bl6/J mouse liver damage model assessed as reduction in liver fibrosis at 3 mg/kg administered once daily via oral gavage starting on day 6 post-BDL induction by picrosirius red staining based histological analysis; type: functional, organism-based
Mus musculus [8] = test: Antifibrotic activity in BDL-induced CB1R deficient C57Bl6/J mouse liver damage model assessed as reduction in collagen deposition in liver at 3 mg/kg administered once daily via oral gavage by picrosirius red staining based histological analysis; type: functional, organism-based
Mus musculus [9] = test: In vivo antagonist activity at CB1R in C57Bl6/J mouse assessed as induction of anxiogenic behavior at 10 mg/kg administered once daily via oral gavage for 28 days by elevated plus maze test; type: functional, organism-based
Mus musculus [10] = test: Antifibrotic activity in CCl4-induced C57Bl6/J mouse liver fibrosis model assessed as reduction in liver fibrosis at 3 mg/kg administered via oral gavage for 4 weeks by picrosirius red staining based histological analysis; type: functional, organism-based
Salmonella typhimurium [11] = test: Mutagenicity in Salmonella typhimurium TA100 up to 125 ug/ml by Ames test; type: toxicity; details: salmonella enterica subsp. enterica serovar typhimurium
Mus musculus [12] = test: Antiobesity activity in diet-induced obesity C57Bl6/J mouse model assessed as reduction in food intake administered once daily via oral gavage for 2 weeks; type: functional
Mus musculus [13] = test: Antifibrotic activity in BDL-induced wild-type C57Bl6/J mouse liver damage model assessed as reduction in collagen deposition in liver at 10 mg/kg administered once daily via oral gavage by picrosirius staining based histological analysis; type: functional, organism-based
[14] = Tmax in Sprague-Dawley rat at 10 mg/kg, po; type: ADME, organism-based; details: in vivo
[15] = Half life in Sprague-Dawley rat at 10 mg/kg, po; type: ADME, organism-based; details: in vivo
Salmonella typhimurium [16] = test: Mutagenicity in Salmonella typhimurium TA98 up to 125 ug/ml by Ames test; type: toxicity; details: salmonella enterica subsp. enterica serovar typhimurium
[17] = Half life in mouse at 10 mg/kg, po; type: ADME, organism-based; details: in vivo
Brain [18] = test: Drug level in C57Bl6/J mouse brain at 10 mg/kg, po administered via gavage measured after 1 hr by LC-MS/MS analysis; type: ADME, organism-based; details: in vivo
[19] = Tmax in mouse at 10 mg/kg, po; type: ADME, organism-based; details: in vivo
Liver [20] = test: Drug uptake in C57Bl6/J mouse liver at 10 mg/kg, po administered via gavage measured after 1 hr by LC-MS/MS analysis; type: ADME, organism-based; details: in vivo
Brain [21] = test: Drug level in C57Bl6/J mouse brain at 10 mg/kg, po administered via gavage measured after 28 days by LC-MS/MS analysis; type: ADME, organism-based; details: in vivo, 672 h
[22] = Ratio of drug level in brain to plasma in C57Bl6/J mouse at 10 mg/kg, po administered via gavage measured after 28 days by LC-MS/MS analysis; type: ADME, organism-based; details: brain and plasma, read-out: BPR
Mus musculus [23] = test: Antiobesity activity in diet-induced obesity C57Bl6/J mouse model assessed as reduction in hepatic steatosis by measuring hepatic triglyceride level administered once daily via oral gavage for 2 weeks; type: functional
Mus musculus [24] = test: Antifibrotic activity in BDL-induced wild-type C57Bl6/J mouse liver damage model assessed as reduction in liver fibrosis at 10 mg/kg administered once daily via oral gavage starting on day 6 post-BDL induction by picrosirius red staining based histological analysis; type: functional, organism-based
Mus musculus [25] = test: Antiobesity activity in diet-induced obesity C57Bl6/J mouse model assessed as reduction in body weight administered once daily via oral gavage for 2 weeks; type: functional
[26] = Oral bioavailability in Sprague-Dawley rat at 10 mg/kg; type: ADME, organism-based; details: in vivo
[27] = Ratio of drug level in brain to plasma in C57Bl6/J mouse at 10 mg/kg, po administered via gavage measured after 1 hr by LC-MS/MS analysis; type: ADME, organism-based
Mus musculus [28] = test: Antiobesity activity in diet-induced obesity C57Bl6/J mouse model assessed as improvement in glucose tolerance administered once daily via oral gavage for 2 weeks measured at post last dose by ipGTT; type: functional
Mus musculus [29] = test: Antifibrotic activity in BDL-induced CB1R deficient C57Bl6/J mouse liver damage model assessed as reduction in collagen deposition in liver at 10 mg/kg administered once daily via oral gavage by picrosirius staining based histological analysis; type: functional, organism-based
Mus musculus [30] = test: In vivo antagonist activity at CB1R in C57Bl6/J mouse assessed as reversal of ACEA-induced reduction in upper gastrointestinal motility administered via oral gavage administered 30 mins prior to ACEA addition; type: functional, organism-based
Liver [31] = test: Drug uptake in C57Bl6/J mouse liver at 10 mg/kg, po administered via gavage measured after 28 days by LC-MS/MS analysis; type: ADME, organism-based; details: in vivo, 672 h

Compound: C/C(N)=N\C(=N/S(=O)(=O)c1ccc(Cl)cc1)N1C[C@@H](c2ccccc2)C(c2ccc(Cl)cc2)=N1
- Activity (Mus musculus [1]): Active
- inhibition [2]: Active
- inhibition [3]: Active
- Activity (Mus musculus [4]): Active

Compound: Cc1c(C(=O)NN2CCCCC2)nn(-c2ccc(Cl)cc2Cl)c1-c1ccc(Cl)cc1
- Activity (Mus musculus [5]): Active
- Activity (Mus musculus [6]): inactive
- Activity (Mus musculus [7]): inactive
- Activity (Mus musculus [8]): inactive
- Activity (Mus musculus [9]): Active
- Activity (Mus musculus [10]): Active

Compound: C/C(N)=N\C(=N/S(=O)(=O)c1ccc(Cl)cc1)N1C[C@H](c2ccccc2)C(c2ccc(Cl)cc2)=N1
- Activity (Salmonella typhimurium [11]): Non-Toxic
- Activity (Mus musculus [12]): Dose-dependent effect
- Activity (Mus musculus [13]): Active
- Tmax [14]: 0.75 h
- Activity (Mus musculus [1]): Active
- half-life [15]: 2 h
- Activity (Salmonella typhimurium [16]): Non-Toxic
- half-life [17]: 2 h
- Activity (Mus musculus [4]): Active
- Drug uptake (Brain [18]): < 3%
- Tmax [19]: 1 h
- Drug uptake (Liver [20]): Active
- Drug uptake (Brain [21]): < 3%
- Kp at 672 h [22]: 0.03
- Activity (Mus musculus [9]): inactive
- Activity (Mus musculus [23]): Dose-dependent effect
- Activity (Mus musculus [24]): Active
- Activity (Mus musculus [25]): Dose-dependent effect
- bioavailability [26]: 55%
- BPR [27]: 2.7%
- Activity (Mus musculus [28]): Dose-dependent effect
- Activity (Mus musculus [29]): Active
- Activity (Mus musculus [30]): Dose-dependent effect
- Drug uptake (Liver [31]): Active

Source: ChEMBL document CHEMBL3992534, “Design, Synthesis, and Biological Evaluation of Novel, Non-Brain-Penetrant, Hybrid Cannabinoid CB1R Inverse Agonist/Inducible Nitric Oxide Synthase (iNOS) Inhibitors for the Treatment of Liver Fibrosis” (J Med Chem, 2017)
